Measured values from PubChem BioAssay AID248 (DTP/NCI, 2004).
“And” between values parts separate entries of the source, which are not always exact repeats. Equal values may be shown once. Toxic doses and inconclusive results are not listed. Rule as the data show it: active = T/C of 150% or more; inactive = T/C below 125%.

Test system: L1210 leukemia ip in BDF1 mice, survival T/C
Assay: NCI In Vivo Anticancer Drug Screen. Data for tumor model L1210 Leukemia (intraperitoneal) in B6D2F1 (BDF1) mice
Details: higher = longer survival
How it was run: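 Value reflects the ratio of survival in compound-treated mice to survival in vehicle-treated controls, with both groups carrying the same transplanted tumor.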

[1] = endpoint: mean survival time, dose: 50.0 mg/kg/injection, schedule: Q01DX001 (ip), vehicle: saline
[2] = endpoint: mean survival time, dose: 100.0 mg/kg/injection, schedule: Q01DX001 (ip), vehicle: saline
[3] = endpoint: mean survival time, dose: 200.0 mg/kg/injection, schedule: Q01DX001 (ip), vehicle: saline
[4] = endpoint: mean survival time, dose: 400.0 mg/kg/injection, schedule: Q01DX001 (ip), vehicle: saline
[5] = endpoint: mean survival time, dose: 100.0 mg/kg/injection, schedule: Q04DX003 (ip), vehicle: Klucel (hydroxypropylcellulose) (HPC)
[6] = endpoint: mean survival time, dose: 200.0 mg/kg/injection, schedule: Q04DX003 (ip), vehicle: Klucel (hydroxypropylcellulose) (HPC)
[7] = endpoint: mean survival time, dose: 400.0 mg/kg/injection, schedule: Q04DX003 (ip), vehicle: Klucel (hydroxypropylcellulose) (HPC)
[8] = endpoint: mean survival time, dose: 100.0 mg/kg/injection, schedule: Q04DX003 (ip), vehicle: saline
[9] = endpoint: mean survival time, dose: 100.0 mg/kg/injection, schedule: Q01DX009 (ip), vehicle: saline
[10] = endpoint: mean survival time, dose: 200.0 mg/kg/injection, schedule: Q01DX009 (ip), vehicle: saline
[11] = endpoint: mean survival time, dose: 200.0 mg/kg/injection, schedule: Q04DX003 (ip), vehicle: saline
[12] = endpoint: mean survival time, dose: 400.0 mg/kg/injection, schedule: Q04DX003 (ip), vehicle: saline
[13] = endpoint: mean survival time, dose: 400.0 mg/kg/injection, schedule: Q01DX009 (ip), vehicle: saline
[14] = endpoint: mean survival time, dose: 100.0 mg/kg/injection, schedule: Q04DX003 (ip), vehicle: saline with Tween-80
[15] = endpoint: mean survival time, dose: 200.0 mg/kg/injection, schedule: Q04DX003 (ip), vehicle: saline with Tween-80
[16] = endpoint: mean survival time, dose: 100.0 mg/kg/injection, schedule: Q01DX009 (ip), vehicle: Klucel (hydroxypropylcellulose) (HPC)
[17] = endpoint: mean survival time, dose: 200.0 mg/kg/injection, schedule: Q01DX009 (ip), vehicle: Klucel (hydroxypropylcellulose) (HPC)
[18] = endpoint: mean survival time, dose: 400.0 mg/kg/injection, schedule: Q01DX009 (ip), vehicle: Klucel (hydroxypropylcellulose) (HPC)

Measured: T/C

CCOC(=O)C(C)(C)[Si](C)(C)C
inactive: [1] 97 % of control | [2] 103 % of control | [3] 97 % of control | [4] 97 % of control

O=C(CCCC(=O)N1CCOCC1)N1CCOCC1
inactive: [5] 108 % of control | [6] 103 % of control | [7] 101 % of control

O=C(COc1ccc(Cl)c(Cl)c1)NCc1ccc[n+](Cc2cccc(Cl)c2S(=O)(=O)F)c1
inactive: endpoint: mean survival time, dose: 25.0 mg/kg/injection, schedule: Q04DX003 (ip), vehicle: saline 103 % of control | endpoint: mean survival time, dose: 50.0 mg/kg/injection, schedule: Q04DX003 (ip), vehicle: saline 101 % of control | [8] 93 % of control and 100 % of control

N=c1ccccn1C(=O)C1=Cc2ccccc2OC1
inactive: endpoint: mean survival time, dose: 100.0 mg/kg/injection, schedule: Q01DX001 (ip), vehicle: saline with Tween-80 103 % of control | endpoint: mean survival time, dose: 200.0 mg/kg/injection, schedule: Q01DX001 (ip), vehicle: saline with Tween-80 100 % of control | endpoint: mean survival time, dose: 400.0 mg/kg/injection, schedule: Q01DX001 (ip), vehicle: saline with Tween-80 96 % of control

C[CH2][Pb]([CH2]C)([CH2]C)[O][As](=O)(O)c1ccc(N)cc1
inactive: endpoint: mean survival time, dose: 0.75 mg/kg/injection, schedule: Q01DX009 (ip), vehicle: Klucel (hydroxypropylcellulose) (HPC) 98 % of control | endpoint: mean survival time, dose: 1.5 mg/kg/injection, schedule: Q01DX009 (ip), vehicle: Klucel (hydroxypropylcellulose) (HPC) 102 % of control | endpoint: mean survival time, dose: 1.5 mg/kg/injection, schedule: Q04DX003 (ip), vehicle: Klucel (hydroxypropylcellulose) (HPC) 96 % of control | endpoint: mean survival time, dose: 3.0 mg/kg/injection, schedule: Q01DX009 (ip), vehicle: Klucel (hydroxypropylcellulose) (HPC) 96 % of control and 102 % of control | endpoint: mean survival time, dose: 3.0 mg/kg/injection, schedule: Q04DX003 (ip), vehicle: Klucel (hydroxypropylcellulose) (HPC) 100 % of control | endpoint: mean survival time, dose: 6.0 mg/kg/injection, schedule: Q04DX003 (ip), vehicle: Klucel (hydroxypropylcellulose) (HPC) 98 % of control

CC1CCC2(OC1)OC1CC3C4CCC5CC(O)CCC5(C)C4CC(=O)OC3(C)C1C2C (stereo not drawn)
inactive: endpoint: mean survival time, dose: 100.0 mg/kg/injection, schedule: Q01DX001 (ip), vehicle: other 97 % of control | endpoint: mean survival time, dose: 200.0 mg/kg/injection, schedule: Q01DX001 (ip), vehicle: other 87 % of control | endpoint: mean survival time, dose: 400.0 mg/kg/injection, schedule: Q01DX001 (ip), vehicle: other 92 % of control

Cc1cc(Cl)c2cc(Cl)cc(Cl)c2n1
inactive: [9] 89 % of control | [8] 91 % of control | [10] 96 % of control | [11] 89 % of control | [12] 94 % of control

CCN(CC)C(=O)N1CCCCC1
inactive: [9] 101 % of control | endpoint: mean survival time, dose: 100.0 mg/kg/injection, schedule: Q04DX002 (ip), vehicle: saline 97 % of control | [10] 92 % of control | endpoint: mean survival time, dose: 200.0 mg/kg/injection, schedule: Q04DX002 (ip), vehicle: saline 100 % of control | endpoint: mean survival time, dose: 400.0 mg/kg/injection, schedule: Q04DX002 (ip), vehicle: saline 95 % of control

OCC(O)C(O)C(O)CC(c1ccc(Cl)cc1)c1ccc(Cl)cc1 (stereo not drawn)
inactive: [1] 102 % of control | [2] 102 % of control | [3] 106 % of control | [4] 107 % of control

O=C(Nc1cc(C(F)(F)F)cc(C(F)(F)F)c1)Nc1ccc(Oc2ccccc2Cl)c(S(=O)(=O)O)c1
inactive: endpoint: mean survival time, dose: 100.0 mg/kg/injection, schedule: Q04DX003 (ip), vehicle: saline sonified 117 % of control | endpoint: mean survival time, dose: 200.0 mg/kg/injection, schedule: Q04DX003 (ip), vehicle: saline sonified 115 % of control | endpoint: mean survival time, dose: 400.0 mg/kg/injection, schedule: Q04DX003 (ip), vehicle: saline sonified 121 % of control

Cc1nc(N)[nH]c(=O)c1CCCNS(=O)(=O)c1ccccc1
inactive: endpoint: mean survival time, dose: 50.0 mg/kg/injection, schedule: Q01DX001 (ip), vehicle: Klucel (hydroxypropylcellulose) (HPC) 105 % of control | endpoint: mean survival time, dose: 100.0 mg/kg/injection, schedule: Q01DX001 (ip), vehicle: Klucel (hydroxypropylcellulose) (HPC) 94 % of control | endpoint: mean survival time, dose: 200.0 mg/kg/injection, schedule: Q01DX001 (ip), vehicle: Klucel (hydroxypropylcellulose) (HPC) 90 % of control

c1ccc2c(c1)CNC2
inactive: [8] 104 % of control | [10] 94 % of control | [11] 106 % of control | [13] 92 % of control | [12] 97 % of control

CC1CCC(C)(C)C1=O (stereo not drawn)
inactive: [9] 106 % of control | [10] 96 % of control | [13] 98 % of control

COc1ccc(OC)c(NC(=O)CS)c1
inactive: [14] 97 % of control | [15] 91 % of control

NCCCNCCCCNCCCN
inactive: endpoint: mean survival time, dose: 2.0 mg/kg/injection, schedule: Q01DX010 (ip), vehicle: other 103 % of control | endpoint: mean survival time, dose: 4.0 mg/kg/injection, schedule: Q01DX010 (ip), vehicle: other 103 % of control | endpoint: mean survival time, dose: 8.0 mg/kg/injection, schedule: Q01DX010 (ip), vehicle: other 97 % of control | endpoint: mean survival time, dose: 16.0 mg/kg/injection, schedule: Q01DX010 (ip), vehicle: other 92 % of control | endpoint: mean survival time, dose: 32.0 mg/kg/injection, schedule: Q01DX010 (ip), vehicle: other 97 % of control | endpoint: median survival time, dose: 6.3 mg/kg/injection, schedule: Q01DX009 (ip), vehicle: water 87 % of control and 90 % of control | endpoint: median survival time, dose: 12.5 mg/kg/injection, schedule: Q01DX009 (ip), vehicle: water 96 % of control and 100 % of control | endpoint: median survival time, dose: 25.0 mg/kg/injection, schedule: Q01DX009 (ip), vehicle: water 94 % of control and 95 % of control | endpoint: median survival time, dose: 50.0 mg/kg/injection, schedule: Q01DX009 (ip), vehicle: water 96 % of control and 100 % of control

Nc1c(Cl)ncnc1Nc1ccccc1C(=O)O
inactive: [1] 102 % of control | [2] 93 % of control | [3] 98 % of control | [4] 98 % of control

CC1(C)C=CN2C(=O)C3=CCCN3C(=O)C2CC12Nc1ccccc1C2=O (stereo not drawn)
inactive: endpoint: mean survival time, dose: 100.0 mg/kg/injection, schedule: Q04DX003 (ip), vehicle: other 111 % of control | endpoint: mean survival time, dose: 200.0 mg/kg/injection, schedule: Q04DX003 (ip), vehicle: other 103 % of control | endpoint: mean survival time, dose: 400.0 mg/kg/injection, schedule: Q04DX003 (ip), vehicle: other 93 % of control

CCCCCCCCCCCCCCCCOc1ccc(OC)cc1
inactive: [5] 102 % of control | [6] 92 % of control | [7] 92 % of control

CC(=O)CC(=O)N1CCCC(C)C1 (stereo not drawn)
inactive: [16] 102 % of control | [5] 104 % of control | [17] 92 % of control | [6] 106 % of control | [18] 96 % of control | [7] 106 % of control

CC1=NN(c2ccccc2)C(=O)C1N=Nc1ccc(S(=O)(=O)Nc2nccc(C)n2)cc1 (stereo not drawn)
inactive: endpoint: mean survival time, dose: 100.0 mg/kg/injection, schedule: Q01DX001 (ip), vehicle: carboxymethylcellulose (CMC) 98 % of control | endpoint: mean survival time, dose: 200.0 mg/kg/injection, schedule: Q01DX001 (ip), vehicle: carboxymethylcellulose (CMC) 98 % of control | endpoint: mean survival time, dose: 400.0 mg/kg/injection, schedule: Q01DX001 (ip), vehicle: carboxymethylcellulose (CMC) 88 % of control

Nc1ccc(N)nc1
inactive: [16] 98 % of control | [5] 95 % of control | [17] 98 % of control | [6] 93 % of control | [18] 94 % of control | [7] 98 % of control

CC12CCC(CC1)C2CO (stereo not drawn)
inactive: endpoint: mean survival time, dose: 50.0 mg/kg/injection, schedule: Q01DX009 (ip), vehicle: saline with Tween-80 105 % of control | endpoint: mean survival time, dose: 100.0 mg/kg/injection, schedule: Q01DX009 (ip), vehicle: saline with Tween-80 98 % of control

O=P(CCCc1ccccc1)(CCCc1ccccc1)Oc1cccc(C(F)(F)F)c1
inactive: [14] 90 % of control | [15] 92 % of control | endpoint: mean survival time, dose: 400.0 mg/kg/injection, schedule: Q04DX003 (ip), vehicle: saline with Tween-80 101 % of control

O=c1cc(-c2ccccc2)nc2c(Cl)cc(Cl)cn12
inactive: endpoint: mean survival time, dose: 100.0 mg/kg/injection, schedule: Q04DX003 (ip), vehicle: acetone 95 % of control | endpoint: mean survival time, dose: 200.0 mg/kg/injection, schedule: Q04DX003 (ip), vehicle: acetone 104 % of control | endpoint: mean survival time, dose: 400.0 mg/kg/injection, schedule: Q04DX003 (ip), vehicle: acetone 96 % of control

O=C(/C=C\c1ccc([N+](=O)[O-])cc1)OCCCCOC(=O)/C=C/c1ccc([N+](=O)[O-])cc1
inactive: [1] 93 % of control | [2] 96 % of control | [3] 90 % of control | [4] 87 % of control
